From US20200316077A1, “PHARMACEUTICAL COMPOSITION FOR THE TREATMENT OF CANCER” (IMPETIS BIOSCIENCES LTD., priority 2017, published 2020)

Experiments:
[1] = system: CT26 cells (colon cancer); assay: CT26 Colon Cancer Model: tumor suppression in mice; type: in vivo; details: BALB/c mice, 3 mg/kg, PO, BID, Day 22, n = 12
Protocol: (§1) Tumor Suppression Activity of Adenosine A2A (Compound 31) and A2B (Compound 169) Antagonists in Xenograft Models of Cancer
(§2) General Protocol: 6-8 weeks old BALB/c mice were acclimated and on Day 1 of the study, the mice were injected with 50 μL of medium containing 5×10^4 4T1 cells (breast cancer) or 5×10^5 CT26 cells (colon cancer). On day 8 or 9, the mice were segregated into different groups and treated orally with either vehicle (1% Tween-80+0.5% Carboxymethylcellulose in water) or test compound [(Compound 32 5-Amino-3-[2-[4-[2-fluoro-4-(2-methoxyethoxy)phenyl]piperazin-1-yl]ethyl]-8-(2-furyl)-1-methyl-[1,2,4]triazolo[5,1-f]purin-2-one (32) & Phosphoric acid mono-{2-cyano-6-oxo-1-propyl-8-[1-(3-trifluoromethyl-benzyl)-1H-pyrazol-4-yl]-1,6-dihydro-purin-7-ylmethyl} ester (335)] in vehicle. The treatment was BID for 22 days (colon cancer) or 28 days (breast cancer). At the end of the study, the tumor volume was measured as (length X breadth)/2. Data were presented as % reduction compared to the tumor volume in vehicle treated animals.

[2] = system: 4T1 cells (breast cancer); assay: 4T1 Breast Cancer Model: tumor suppression in mice; type: in vivo; details: BALB/c mice, 3 mg/kg, PO, BID, Day 28, n = 12
Protocol: as §1, §2

CCCn1c(C#N)nc2nc(-c3cnn(Cc4cccc(C(F)(F)F)c4)c3)n(COP(=O)(O)O)c2c1=O [Compound 335, Phosphoric acid mono-{2-cyano-6-oxo-1-propyl-8-[1-(3-trifluoromethyl-benzyl)-1H-pyrazol-4-yl]-1,6-dihydro-purin-7-ylmethyl} ester]
% decrease in Tumor growth vs. vehicle On Day 22 [1]: 23.90% | % decrease in Tumor growth vs. vehicle On Day 28 [2]: 46.40%
